Here are results for six molecules from article PMC10489644, “In Vitro Evaluation of the Potential for Drug Interactions by Salidroside” (Nutrients, 2023).

For orientation: fold induction means the ratio of treated to control signal. One may read the IC50 as the point on the concentration scale where inhibition reaches its midpoint.

In data set [1] the test system is CYP1A2. The data set is described as follows: in vitro. How it is done: (§1) The sandwich medium was removed, and the hepatocytes were treated with incubation solutions containing salidroside (1, 5, 10, and 30 µM), vehicle (0.1% DMSO), or positive inducers in triplicate for 24 h after the cultures were established. The incubation solution was aspirated and replaced with incubation solution containing the same concentrations of salidroside, vehicle, or positive inducers for an additional 24 h. The total treatment period was 48 h. After the treatment period of 48 h, the incubation solution was aspirated. Hepatocytes were washed twice with pre-warmed HBSS containing 10 mM HEPES (HBSS I) and then the remaining solution was aspirated. Hepatocytes were washed once with pre-warmed HBSS I and incubated with 140 μL of RLT (lysis buffer from RNeasy 96 Kit) supplemented with 1% β-mercaptoethanol. Plates were then stored at −70 °C in a freezer until RNA analysis. Before RNA extraction, the frozen plate was thawed, and cell lysates were transferred to 96-well plates. RNA isolation was performed using a QIAcube RNA extraction system. Reverse transcription was performed to obtain cDNA. Quantification of the selective genes by real-time quantitative polymerase chain reaction (qPCR) was performed with TaqMan universal PCR Master Mix on the Bio-rad CFX384 TouchTM Real-Time PCR System. The relative change in the mRNA level of the selected target genes induced by each test compound was expressed in relation to the vehicle control sample, and fold changes in gene expression were determined by the ΔΔCt method.
(§2) Enzyme activity (%) = PAR with compound/PAR vehicle × 100.

The subject of data set [2] is CYP1A2. As to the kind of experiment: in vitro. To be noted: CYP1A2 mRNA, 50 μM, 48 h; for fold induction at 48 h, 50 µM: human, cryopreserved human hepatocytes (sandwich culture), Mean Fold Induction. The procedure: as §1, with “The” for “The sandwich medium was removed, and the hepatocytes were treated with incubation solutions containing salidroside (1, 5, 10, and 30 µM), vehicle (0.1% DMSO), or positive inducers in triplicate for 24 h after the cultures were established. The”

The target in data set [3] is T1, OATP1B3 (Homo sapiens, UniProt Q9NPD5).
T1 sequence (Q9NPD5 1-702): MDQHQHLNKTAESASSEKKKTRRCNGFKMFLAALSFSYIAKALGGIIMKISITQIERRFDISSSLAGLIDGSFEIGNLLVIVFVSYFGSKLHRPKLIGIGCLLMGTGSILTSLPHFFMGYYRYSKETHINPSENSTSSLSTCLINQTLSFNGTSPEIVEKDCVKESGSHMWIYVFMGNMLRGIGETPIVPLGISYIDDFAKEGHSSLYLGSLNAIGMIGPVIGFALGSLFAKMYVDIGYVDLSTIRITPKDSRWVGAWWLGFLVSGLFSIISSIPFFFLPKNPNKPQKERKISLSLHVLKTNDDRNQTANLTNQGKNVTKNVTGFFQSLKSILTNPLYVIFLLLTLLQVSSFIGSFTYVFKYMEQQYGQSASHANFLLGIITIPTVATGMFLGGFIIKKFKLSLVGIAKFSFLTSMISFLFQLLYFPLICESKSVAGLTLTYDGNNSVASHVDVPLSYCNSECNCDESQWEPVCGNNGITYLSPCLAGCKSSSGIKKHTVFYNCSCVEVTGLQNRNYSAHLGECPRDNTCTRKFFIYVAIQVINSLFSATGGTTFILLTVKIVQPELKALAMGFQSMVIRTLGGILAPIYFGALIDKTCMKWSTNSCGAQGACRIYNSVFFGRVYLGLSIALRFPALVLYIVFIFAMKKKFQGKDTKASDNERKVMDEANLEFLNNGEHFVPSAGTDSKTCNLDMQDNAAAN
The data set is described as follows: in vitro. As to conditions: human. The procedure:
HEK293-OATP1B1 and OATP1B3 cells were diluted to 1 × 10^6 cells/mL with DMEM supplemented with 1% non-essential amino acid (NEAA), 10% fetal bovine serum (FBS), 1% PS solution (100 U/mL penicillin-G and 100 μg/mL streptomycin), and seeded on a 96-well BioCoat™ poly-d-lysine plate at a density of 1 × 10^6 cells/mL. […] Once the cells were anchored on the plate, the cell culture was replaced with DMEM containing 10% FBS and 1% PS solution (100 U/mL penicillin-G and 100 μg/mL streptomycin solution) and cultured one day for the uptake and inhibition studies. The cell culture medium was removed from the 96-well plate, then rinsed twice with 0.1 mL/well of pre-warmed transport buffer. The transporter cells containing pre-incubation solution were pre-incubated at 37 °C for 30 min. Then the pre-incubation solution was removed and replaced with 0.1 mL/well of dosing solution containing a substrate, respectively (blank transporter buffer containing a substrate, transport buffer containing a substrate and PC, and transport buffer containing a substrate and salidroside). Then, the transporter cells were incubated at 37 °C for 2 min. After incubation, all solutions in the cells were discarded and rinsed with 0.10 mL/well of ice-cold transport buffer (4 °C) three times. […] All samples were shaken and centrifuged at 4000 rpm at 4 °C for 15 min and the supernatant was removed for future analysis by LC-MS/MS.
as §2

The test system of data set [4] is MAO-B. Also noted: method as in PMID 19168123. To be noted: isolated compound at 10 µM; cited from earlier work.
The subject of data set [5] is CYP2B6. The data set is described as follows: CYP induction by enzyme activity in cryopreserved human hepatocytes (Lot# SNP). The procedure:
as §1, §2

Data set [6] deals with CYP2B6. The data set is described as follows: in vitro. To be noted: CYP2B6 mRNA, 1000 µM, 48 h; for fold induction at 48 h, 1000 µM: human, Mean Fold Induction. The procedure:
as §1

Data set [7] has as its target T2, recombinant human MAO-B (Homo sapiens, UniProt P27338).
T2 construct: purchased Corning
T2 sequence (P27338 1-520): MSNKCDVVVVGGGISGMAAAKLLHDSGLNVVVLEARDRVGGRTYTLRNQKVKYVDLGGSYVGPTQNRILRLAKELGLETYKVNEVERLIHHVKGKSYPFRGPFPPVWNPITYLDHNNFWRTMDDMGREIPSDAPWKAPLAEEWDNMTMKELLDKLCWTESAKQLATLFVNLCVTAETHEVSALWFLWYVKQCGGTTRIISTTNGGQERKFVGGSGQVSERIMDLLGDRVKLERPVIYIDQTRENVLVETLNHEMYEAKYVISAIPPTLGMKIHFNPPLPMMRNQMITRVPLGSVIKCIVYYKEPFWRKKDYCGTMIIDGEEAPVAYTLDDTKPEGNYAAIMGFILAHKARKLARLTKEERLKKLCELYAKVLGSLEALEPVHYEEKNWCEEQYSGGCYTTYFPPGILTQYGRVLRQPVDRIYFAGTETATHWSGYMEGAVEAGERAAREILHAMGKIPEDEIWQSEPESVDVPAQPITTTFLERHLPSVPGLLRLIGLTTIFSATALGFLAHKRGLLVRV
As to the kind of experiment: MAO inhibition, kynuramine oxidation to 4-hydroxyquinoline. The data set is classed as biochemical. To be noted: substrate kynuramine (20 µM); mean of N = 2. How it is done: (§3) A total of 99 µL of substrate working solution was added into 1.1 mL incubation tubes and then 1 µL of the test compound/control working solution or DMSO (vehicle control) was added, mixed well, and pre-incubated at 37 °C for 5 min. MAO-A (0.005 mg/mL) and MAO-B (0.02 mg/mL) were pre-incubated in the working solution at 37 °C for 5 min. A total of 100 µL of pre-incubated MAO-A or MAO-B working solution was added to incubation tubes to start the reaction, mixed well, and incubated at 37 °C for 15 min. […] All samples were centrifuged at 4000 rpm at 4 °C for 15 min, then 100 µL supernatant with 100 µL of water was transferred for LC-MS/MS analysis.
as §2
(§4) The oxidation of kynuramine to 4-hydroxyquinoline generated was the in vitro marker reaction of MAO-A and MAO-B enzymes.

The target of data set [8] is T3, recombinant human MAO-A (Homo sapiens, UniProt P21397).
T3 sequence (P21397 1-527): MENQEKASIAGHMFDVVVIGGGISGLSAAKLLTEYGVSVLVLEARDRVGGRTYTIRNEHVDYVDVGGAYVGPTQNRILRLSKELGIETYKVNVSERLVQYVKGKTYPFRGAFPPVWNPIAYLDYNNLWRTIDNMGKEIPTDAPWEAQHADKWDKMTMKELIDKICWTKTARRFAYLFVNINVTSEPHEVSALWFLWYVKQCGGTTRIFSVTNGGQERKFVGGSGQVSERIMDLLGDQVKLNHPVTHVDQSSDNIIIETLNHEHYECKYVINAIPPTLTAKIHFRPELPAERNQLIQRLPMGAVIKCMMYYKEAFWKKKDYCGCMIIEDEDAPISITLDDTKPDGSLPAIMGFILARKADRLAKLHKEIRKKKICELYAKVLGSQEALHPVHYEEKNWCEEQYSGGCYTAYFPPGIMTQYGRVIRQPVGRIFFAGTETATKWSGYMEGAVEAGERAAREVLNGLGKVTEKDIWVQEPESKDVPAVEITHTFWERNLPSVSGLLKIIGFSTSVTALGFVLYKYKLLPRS
The description is as above. The format is biochemical. As to conditions: substrate kynuramine (20 µM); mean of N = 2; read-out: IC50 MAO-A. The procedure:
as §3, §2, §4

The test system of data set [9] is CYP3A4/5. The data set is described as follows: CYP direct inhibition in human liver microsomes. To be noted: pooled human liver microsomes. In general terms: Liver microsomes are a subcellular fraction often used to study metabolism.

Read-outs that look alike come from different tables or passages of the source.

For the molecule `COc1ccc2[nH]c([S+]([O-])Cc3ncc(C)c(OC)c3C)nc2c1` (stereo not shown) [OME, omeprazole, reference compound], the fold induction at 48 h, 50 µM in [1] was determined as 3.55; in [2] (Lot# 1911442), 10; in data set [2] (Lot# MWB), 24; in [2] (Lot# RFM) it was 19. For the same molecule, the “% of Positive Control” value in data set [1] (CYP1A2 activity, Lot# SNP, 50 µM) is recorded as 100%. Moreover, the “% Positive Control” value in data set [2] (Lot# 1911442), in [2] (Lot# MWB) and in [2] (Lot# RFM) was 100% throughout.

In data set [3], `CO[C@H]1/C=C/O[C@@]2(C)Oc3c(C)c(O)c4c(O)c(c(/C=N/N5CCN(C)CC5)c(O)c4c3C2=O)NC(=O)/C(C)=C\C=C\[C@H](C)[C@H](O)[C@@H](C)[C@@H](O)[C@@H](C)[C@H](OC(C)=O)[C@@H]1C` [RIF, rifampicin, reference compound] displayed an IC50 at 2 min of 1.54 µM.

For the molecule `CC(C)=CC[C@H](O)/C(C)=C/CO[C@@H]1O[C@H](CO)[C@@H](O)[C@H](O)[C@H]1O` [rosirdin, reference compound], the “inhibition of MAO-B” value in [4] is recorded as 83.8%.

Regarding `CCC1(c2ccccc2)C(=O)NC(=O)NC1=O` [PB, phenobarbital, reference compound], the “% of Positive Control” value in [5] (CYP2B6 activity, Lot# SNP, 1000 µM) is on record as 100%. Moreover, the fold induction at 48 h, 1000 µM was found to be 5.69 in data set [5] (human), 13.6 in [6] (Lot# 1911442), 14.7 in data set [6] (Lot# MWB) and 8.81 in data set [6] (Lot# RFM). The “% Positive Control” value in data set [6] (Lot# 1911442), in data set [6] (Lot# MWB) and in [6] (Lot# RFM) was 100% each time.

`Cc1oncc1C(=O)Nc1ccc(C(F)(F)F)cc1` [leflunomide, reference compound]: the figures for the IC50 in [7] and in data set [8] were 7.4 µM and 13.8 µM, respectively.

For the molecule `CC(=O)N1CCN(c2ccc(OCC3COC(Cn4ccnc4)(c4ccc(Cl)cc4Cl)O3)cc2)CC1` (stereo not shown) [Ketoconazole, ketoconazole], the figures for the IC50 at 10 min in data set [9] (probe midazolam) and in data set [9] (probe testosterone) were 0.027 µM and 0.0183 µM, respectively.
